{"source": "patent US9302999B2", "about": "“Substituted triazoles as herbicides” (E. I. DU PONT DE NEMOURS AND COMPANY, priority 2012, dated 2016)", "type_in_all_cases": "in vivo", "key": {"[1]": {"tested_on": "ducksalad (Heteranthera limosa)", "experiment": "Test B flooded paddy: ducksalad", "conditions": "Flood; 125 g ai/ha; applied to paddy water at 2-leaf stage; visually evaluated after 13 to 15 days", "method_in_brief": "(§1)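 At two leaves, seedlings received the test compound via the paddy water, pots having been flooded 3 cm over the soil surface and kept so. Greenhouse-held for 13 to 15 days, then judged by eye against controls on a scale running 0 (no effect) to 100 (complete control).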"}, "[2]": {"tested_on": "pigweed (Amaranthus retroflexus)", "experiment": "Test A pre-/postemergence: pigweed", "method_in_brief": "(§2)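 Visual 0–100 injury ratings (0 no effect, 100 complete control) taken about ten days after treatment, relative to untreated controls. Preemergence treatment was a directed soil spray; postemergence plants were 2–10 cm tall at one- to two-leaf stage. Soil: loam/sand blend.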"}, "[3]": {"tested_on": "barnyardgrass (Echinochloa crus-galli)", "experiment": "Test B flooded paddy: barnyardgrass", "conditions": "Flood; 125 g ai/ha; applied to paddy water at 2-leaf stage; visually evaluated after 13 to 15 days", "method_in_brief": "as §1"}, "[4]": {"tested_on": "morningglory (Ipomoea spp.)", "experiment": "Test A pre-/postemergence: morningglory", "method_in_brief": "as §2"}, "[5]": {"tested_on": "velvetleaf (Abutilon theophrasti)", "experiment": "Test A pre-/postemergence: velvetleaf", "method_in_brief": "as §2"}, "corn (Zea mays)": {"tested_on": "corn (Zea mays)", "experiment": "Test A pre-/postemergence: corn", "method_in_brief": "as §2"}, "[6]": {"tested_on": "crabgrass, large (large crabgrass, Digitaria sanguinalis)", "experiment": "Test A pre-/postemergence: crabgrass, large", "method_in_brief": "as §2"}, "[7]": {"tested_on": "foxtail, giant (giant foxtail, Setaria faberii)", "experiment": "Test A pre-/postemergence: foxtail, giant", "method_in_brief": "as §2"}, "[8]": {"tested_on": "wheat (Triticum aestivum)", "experiment": "Test A pre-/postemergence: wheat", "method_in_brief": "as §2"}, "[9]": {"tested_on": "sedge, umbrella (small-flower umbrella sedge Cyperus difformis)", "experiment": "Test B flooded paddy: sedge, umbrella", "conditions": "Flood; 125 g ai/ha; applied to paddy water at 2-leaf stage; visually evaluated after 13 to 15 days", "method_in_brief": "as §1"}, "rice (Oryza sativa)": {"tested_on": "rice (Oryza sativa)", "experiment": "Test B flooded paddy: rice", "conditions": "Flood; 125 g ai/ha; applied to paddy water at 2-leaf stage; visually evaluated after 13 to 15 days", "method_in_brief": "as §1"}, "[10]": {"tested_on": "barnyardgrass (Echinochloa crus-galli)", "experiment": "Test A pre-/postemergence: barnyardgrass", "method_in_brief": "as §2"}, "[11]": {"conditions": "Postemergence, 125 g ai/ha, 0 to 100 scale, 0 is no effect, 100 is complete control"}, "[12]": {"conditions": "Postemergence, 500 g ai/ha, 0 to 100 scale, 0 is no effect, 100 is complete control"}, "[13]": {"conditions": "Preemergence, 125 g ai/ha, 0 to 100 scale where 0 is no effect and 100 is complete control"}, "[14]": {"conditions": "Preemergence, 500 g ai/ha, 0 to 100 scale (0 no effect, 100 complete control)"}}}
{"smiles": "CCc1nn(-c2ccc(F)cc2F)nc1Oc1ccnc(C(F)F)c1", "note": "[Compound 181]", "values": [{"measurement": "Plant response rating, Ducksalad (0 to 100 scale, 0 is no effect, 100 is complete control)", "setting": "[1]", "result": 0}, {"measurement": "Plant response rating, Pigweed", "setting": "[2]; [11]", "result": 90}, {"measurement": "Pigweed plant response rating", "setting": "[2]; [12]", "result": 100}, {"measurement": "Plant response rating, Pigweed", "setting": "[2]; [13]", "result": 60}, {"measurement": "Plant response rating, Pigweed", "setting": "[2]; [14]", "result": 90}, {"measurement": "Plant response rating, Barnyardgrass (0 to 100 scale, 0 is no effect, 100 is complete control)", "setting": "[3]", "result": 0}, {"measurement": "Plant response rating, Morningglory", "setting": "[4]; [11]", "result": 90}, {"measurement": "Morningglory plant response rating", "setting": "[4]; [12]", "result": 90}, {"measurement": "Plant response rating, Morningglory", "setting": "[4]; [13]", "result": 0}, {"measurement": "Plant response rating, Morningglory", "setting": "[4]; [14]", "result": 10}, {"measurement": "Plant response rating, Velvetleaf", "setting": "[5]; [11]", "result": 30}, {"measurement": "Velvetleaf plant response rating", "setting": "[5]; [12]", "result": 70}, {"measurement": "Plant response rating, Velvetleaf", "setting": "[5]; [13]", "result": 0}, {"measurement": "Plant response rating, Velvetleaf", "setting": "[5]; [14]", "result": 0}, {"measurement": "Plant response rating, Corn", "setting": "corn (Zea mays); [11]", "result": 0}, {"measurement": "Corn plant response rating", "setting": "corn (Zea mays); [12]", "result": 10}, {"measurement": "Plant response rating, Corn", "setting": "corn (Zea mays); [13]", "result": 0}, {"measurement": "Plant response rating, Corn", "setting": "corn (Zea mays); [14]", "result": 0}, {"measurement": "Plant response rating, Crabgrass, Large", "setting": "[6]; [11]", "result": 50}, {"measurement": "Crabgrass, Large plant response rating", "setting": "[6]; [12]", "result": 50}, {"measurement": "Plant response rating, Crabgrass, Large", "setting": "[6]; [13]", "result": 10}, {"measurement": "Plant response rating, Crabgrass, Large", "setting": "[6]; [14]", "result": 80}, {"measurement": "Plant response rating, Foxtail, Giant", "setting": "[7]; [11]", "result": 30}, {"measurement": "Foxtail, Giant plant response rating", "setting": "[7]; [12]", "result": 80}, {"measurement": "Plant response rating, Foxtail, Giant", "setting": "[7]; [13]", "result": 10}, {"measurement": "Plant response rating, Foxtail, Giant", "setting": "[7]; [14]", "result": 80}, {"measurement": "Plant response rating, Wheat", "setting": "[8]; [11]", "result": 0}, {"measurement": "Wheat plant response rating", "setting": "[8]; [12]", "result": 20}, {"measurement": "Plant response rating, Wheat", "setting": "[8]; [13]", "result": 0}, {"measurement": "Plant response rating, Wheat", "setting": "[8]; [14]", "result": 0}, {"measurement": "Plant response rating, Sedge, Umbrella (0 to 100 scale, 0 is no effect, 100 is complete control)", "setting": "[9]", "result": 0}, {"measurement": "Plant response rating, Rice (0 to 100 scale, 0 is no effect, 100 is complete control)", "setting": "rice (Oryza sativa)", "result": 20}, {"measurement": "Plant response rating, Barnyardgrass", "setting": "[10]; [11]", "result": 0}, {"measurement": "Barnyardgrass plant response rating", "setting": "[10]; [12]", "result": 30}, {"measurement": "Plant response rating, Barnyardgrass", "setting": "[10]; [13]", "result": 0}, {"measurement": "Plant response rating, Barnyardgrass", "setting": "[10]; [14]", "result": 20}]}
